Earlier results in patent US20250099634A1, “METHOD OF TREATING CANCER” (Novartis AG, priority 2023, published 2025).

System: G1-2 midgut and pancreatic NET
Conditions: 120 mg/month, cited from earlier work

CC(C)[C@@H]1NC(=O)[C@H](CCCCN)NC(=O)[C@@H](Cc2c[nH]c3ccccc23)NC(=O)[C@H](Cc2ccc(O)cc2)NC(=O)[C@@H](NC(=O)[C@H](N)Cc2ccc3ccccc3c2)CSSC[C@@H](C(=O)N[C@H](C(N)=O)[C@@H](C)O)NC1=O [lanreotide]
HR for progression or death with lanreotide vs. placebo (95% CI 0.30 to 0.73): 0.47 | median PFS: not reached
